{"source": "paper PMC12266748", "about": "“A Xanthine Derivative With Novel Heat Shock Protein 90‐Alpha Inhibitory and Senolytic Properties” (Aging Cell, 2025)", "test_system": "HUVEC", "assay": "MTT viability of Doxorubicin-induced senescent and non-senescent HUVEC", "format": "cell-based, Human", "settings": "for EC50: Homo sapiens", "excerpt": "IMR90 and WI38 lung fibroblasts were purchased from ECACC‐Merck. Human bone marrow (BM)‐derived mesenchymal stromal cells (MSCs) were purchased from Lonza. Human umbilical vein endothelial cells (HUVECs) are primary cells obtained from a pool of donors purchased from Clonetics (Lonza). Murine ear fibroblasts (MearFs) were obtained from C57BL/6J mice maintained in the INRCA “Specific Pathogen Free” (SPF) animal facility. MCF7 breast cancer cells were purchased from ATCC. For dose–response curves, IMR90 and WI38 were induced to senescence through replicative passages; MSCs, HUVECs, and MearFs senescence was induced with Doxorubicin; MCF7 senescence was induced with 4‐Hydroxytamoxifen (Lee et al. [2014]). The EC50 was calculated using GraphPad Prism 10 software. All treatment specifications are reported in the extended section.\nCell viability was determined using an MTT assay. Absorbance was measured using a NB‐12‐0035 Microplate Reader (NeoBiotech Co.). Data are expressed as a percentage of viability compared with untreated cells.\nHuman umbilical vein endothelial cells (HUVECs) are primary cells obtained from a pool of donors purchased from Clonetics (Lonza, Stein, Switzerland). HUVECs were cultured in endothelial basal medium (EBM-2, CC-3156, Lonza) supplemented with SingleQuot Bullet Kit (CC-4176, Lonza) containing 0.1% human recombinant epidermal growth factor (rh-EGF), 0.04% hydrocortisone, 0.1% vascular endothelial growth factor (VEGF), 0.4% human recombinant fibroblast growth factor (rh-FGF-B), 0.1% insulin-like growth factor-1 with the substitution of arginine for glutamic acid at position 3 (R3-IGF-1), 0.1% ascorbic acid, 0.1% heparin, 0.1% gentamicin and amphotericin-B (GA-1000), and 2% fetal bovine serum (FBS). The cells were seeded at a density of 5000/cm^2 in T75 flasks (Corning Costar, Sigma Aldrich, St. Louis, MO, USA).\nMurine ear fibroblasts (MearFs) were obtained from C57BL/6J mice maintained in the INRCA \"Specific Pathogen Free\" (SPF) animal facility. The ear biopsies (2 mm radius) were obtained with a dedicated puncher, and cells recovered as previously described (Malavolta et al. 2022). Cells were seeded at a density of 5000/cm^2 in T75 flasks (Corning Costar, Sigma Aldrich, St. Louis, MO, USA) and maintained at 37°C in a 95% humidified incubator with 5% CO2. […]\nCell viability assay. Cell viability has been determined with MTT (3-(4,5-dimethylthiazol-2-yl)-2, 5-diphenyltetrazolium bromide) assay. […] Insoluble formazan salts produced were solubilized with DMSO incubation, and then absorbance was measured at 540 nm using a microplate reader (NB-12-0035 Microplate Reader, NeoBiotech Co., Seoul, Republic of Korea). Data are expressed as a percentage of viability compared with untreated cells (the control group has been considered 100% of viability).", "note": "Where two headings read alike, the source gives them in different places.", "data": [{"compound": "Cc1ccccc1-n1c(=O)n(Cc2ccccc2)c(=O)c2[nH]cnc21", "note": "[Compound K5, 1-benzyl-3-(2-methylphenyl)-7H-purine-2,6-dione]", "values": [{"measurement": "Senolytic evidence (no, partly/yes)", "setting": "DNA damage (Doxorubicin)", "result": "No"}, {"measurement": "EC50", "setting": "DNA damage (Doxorubicin), MTT, read-out: EC50 senescent cells", "result": "> 500", "unit": "µM"}, {"measurement": "EC50", "setting": "MTT, read-out: EC50 proliferating cells", "result": "> 500", "unit": "µM"}, {"measurement": "difference in vitality, DOXO-induced senescent vs non-senescent proliferating cells", "setting": "MTT", "result": "no discernible difference"}]}]}
